In BindingDB's records for patent US11760761 (Aligos Therapeutics, 2023) one finds IC50 data, which are given here for 15 compounds.

The target of the test is Programmed cell death 1 ligand/protein 1 (Homo sapiens, UniProt Q9NZQ7). As to the kind of experiment: PDL1/PD1 Binding Assay. The procedure: Compounds to be tested were serially diluted in DMSO, and further diluted in assay buffer (25 mM Hepes pH 7.4, 150 mM NaCl, 0.005% Tween 20, BSA 0.01%). Diluted compounds were added to the wells with final concentration of DMSO at 1%. PDL1-6×His protein was added to the wells, mixed well with compound. The plates were incubated for 30 min at room temperature. PD1-Fc-Avi-Biotin protein was added to the wells. Final concentration of PDL1 and PD1 protein is 0.3 nM and 2.5 nM, respectively. After a binding time of 30 min at room temperature, Anti-6×His Acceptor beads (final concentration 20 ug/ml) were added to the wells, and the incubation continued for 1 h. Streptavidin Donor beads (final concentration 20 ug/mL) were added at reduced light. The plates were sealed with foil and incubated in the dark for additional 1 h or overnight before reading on an Envision reader.

Molecules are shown by their SMILES. A value given as a limit tells only on which side of the number the result lay.

Chain of Programmed cell death 1 ligand/protein 1 (Q9NZQ7 whole entry): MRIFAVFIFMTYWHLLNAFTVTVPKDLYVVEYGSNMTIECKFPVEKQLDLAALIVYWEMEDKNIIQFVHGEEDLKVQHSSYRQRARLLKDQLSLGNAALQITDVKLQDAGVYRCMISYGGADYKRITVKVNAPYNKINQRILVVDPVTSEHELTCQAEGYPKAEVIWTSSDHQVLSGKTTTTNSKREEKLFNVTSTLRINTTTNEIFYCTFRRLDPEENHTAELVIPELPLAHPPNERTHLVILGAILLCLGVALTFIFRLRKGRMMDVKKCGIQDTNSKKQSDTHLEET
Chain of Programmed cell death 1 ligand/protein 1 (Q15116 whole entry, further chain): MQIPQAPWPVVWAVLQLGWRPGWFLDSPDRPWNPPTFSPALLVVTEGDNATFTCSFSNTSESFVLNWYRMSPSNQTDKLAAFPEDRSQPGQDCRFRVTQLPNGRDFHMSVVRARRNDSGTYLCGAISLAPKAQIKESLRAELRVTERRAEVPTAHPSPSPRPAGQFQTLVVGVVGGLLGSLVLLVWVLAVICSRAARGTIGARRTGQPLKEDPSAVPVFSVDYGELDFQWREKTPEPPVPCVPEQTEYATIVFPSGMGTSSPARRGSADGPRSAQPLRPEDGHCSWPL

By IC50 is commonly meant the midpoint of a concentration-inhibition curve. Low readings indicate higher potency, high ones lower potency. With `COc1nc(-c2cccc(-c3cccc(-c4cc5c(c(OC)n4)[C@@H](NC[C@@H]4CCC(=O)N4)CC5)c3Cl)c2Cl)cnc1CN1CC2(C1)CN(C(C)=O)C2` [US11760761, Compound D-1], the IC50 was less than 10 nM.

For the compound `COc1nc(-c2cccc(-c3cccc(-c4cc5c(c(OC)n4)[C@H](NC[C@@H]4CCC(=O)N4)CO5)c3Cl)c2Cl)ccc1CN1CC(OC)C1` [US11760761, Compound E-7], the IC50 was less than 10 nM.

For `COc1nc(-c2cccc(-c3cccc(-c4cc5c(c(OC)n4)CCN(C[C@@H]4CCC(=O)N4)C5)c3Cl)c2Cl)cnc1CN1CC2(CCC(=O)N2)C1` [US11760761, Compound K-1], the IC50 is less than 10 nM.

In turn, `COc1cc(-c2cccc(-c3cccc(-c4cnc(CN5CC6(CCC(=O)N6)C5)c(OC)n4)c3Cl)c2Cl)cc2c1[C@@H](NCC(=O)O)CC2` [US11760761, Compound B-1] displayed an IC50 of less than 10 nM.

For the compound `COc1nc(-c2cccc(-c3cccc(-c4cc5c(c(OC)n4)[C@@H](NC[C@@H]4CCC(=O)N4)CC5)c3Cl)c2Cl)ccc1CNC[C@@H]1CCC(=O)N1` [US11760761, Compound E-1], the IC50 is less than 10 nM.

`COc1nc(-c2cccc(-c3cccc(-c4cc5c(c(OC)n4)[C@H](NC[C@@H]4CCC(=O)N4)CO5)c3Cl)c2Cl)ccc1CNC[C@@H]1CCC(=O)N1` [US11760761, Compound E-6] returned a half-inhibitory concentration (IC50) of less than 10 nM.

Regarding `COCCN1CCc2c(cc(-c3cccc(-c4cccc(-c5cnc(CN6CC7(CCC(=O)N7)C6)c(OC)n5)c4Cl)c3Cl)nc2OC)C1` [US11760761, Compound K-2], the IC50 was less than 10 nM.

In turn, `COc1nc(-c2cccc(-c3cccc(-c4cc5c(c(OC)n4)[C@@H](NC[C@@H]4CCC(=O)N4)CC5)c3Cl)c2Cl)cnc1CN1CC2(CCC(=O)N2)C1` [US11760761, Compound C-1] displayed an IC50 of less than 10 nM.

`COc1nc(-c2cccc(-c3cccc(-c4cc5c(c(OC)n4)[C@@H](NC[C@@H]4CCC(=O)N4)CC5)c3Cl)c2Cl)cc(C)c1CN1CC2(C1)CN(C(C)=O)C2` [US11760761, Compound E-2] had an IC50 of less than 10 nM.

In the case of `CCOC(=O)C1CN([C@H]2CCc3cc(-c4cccc(-c5cccc(-c6cnc(CN7CC(O)C7)c(OC)n6)c5Cl)c4Cl)nc(OC)c32)C1` [US11760761, Compound G-1], the half-maximal inhibitory concentration (IC50) was less than 10 nM.

Regarding `COc1cc(-c2cccc(-c3cccc(-c4cnc(CN5CC6(CCC(=O)N6)C5)c(OC)n4)c3Cl)c2Cl)cc2c1[C@H](NCC(=O)O)CC2` (single isomer, unassigned) [US11760761, Compound B-2], the IC50 is less than 10 nM.

Compound `CCOC(=O)CN1CCc2c(cc(-c3cccc(-c4cccc(-c5cnc(CN6CC(O)C6)c(OC)n5)c4Cl)c3Cl)nc2OC)C1` [US11760761, Compound I-1] displayed an IC50 of less than 10 nM.

In turn, `COc1nc(-c2cccc(-c3cccc(-c4cc5c(c(OC)n4)[C@@H](N4CC(C(=O)O)C4)CC5)c3Cl)c2Cl)cnc1CN1CC(O)C1` [US11760761, Compound H-1] gave an IC50 of less than 10 nM.

`COc1nc(-c2cccc(-c3cccc(-c4cc5c(c(OC)n4)CCN(CC(=O)O)C5)c3Cl)c2Cl)cnc1CN1CC(O)C1` [US11760761, Compound J-1] gave a half-inhibitory concentration (IC50) of less than 10 nM.

Turning to `COc1nc(-c2cccc(-c3cccc(-c4cc5c(c(OC)n4)C(N4CCC[C@@H](C(=O)O)C4)CC5)c3Cl)c2Cl)cnc1CN1CC(O)C1` (stereo not given in full) [US11760761, Compound F-1], the IC50 is less than 10 nM.
